Reference: paper PMC10364322, “Evaluation of chronic drug-induced electrophysiological and cytotoxic effects using human-induced pluripotent stem cell-derived cardiomyocytes (hiPSC-CMs)” (Frontiers in Pharmacology, 2023)
Where two headings read alike, the source gives them in different places.

How the values were obtained:
[1] = system: hiPSC-CMs (iCell-Cardiomyocytes^2)
Method: (§1) Cells were seeded according to the instructions of the cell provider, in fibronectin-coated 48-well MEA plates (Axion Cytoview Plates, M768-tMEA-48B) at a density suited to form a monolayer (i.e., 50 K/well) and maintained in culture in a stage incubator (37°C, 5% CO2).
(§2) At least 4 h before the beginning of the baseline measurements, a full medium exchange was performed (to a final volume of 400 µL per well). Neat compounds were dissolved in 100% DMSO at a stock concentration 1000-fold the highest target concentration. […] Afterwards, these stock solutions were diluted with Maintenance medium (CDi), to 10-fold the intended concentration. The final DMSO concentration in test solutions and vehicle control was 0.1%.
(§3) Spontaneous electrical activity was recorded in hiPSC-CMs monolayers as field potentials using the Maestro Pro MEA instrument (Axion Biosystems, Atlanta, GA, United States), which allows the maintenance of accurate temperature and CO2 levels (37°C, 5% CO2). After the plate was placed in the Maestro Pro and allowed to equilibrate for about 10 min, baseline acquisition of field potential and impedance signals was initiated and lasted for 5 min each. […] As impedance measures resistance of an applied alternating current through the hiPSC-CMs monolayer, a reduction in the attachment of hiPSC-CMs to the bottom of the well due to cell death or changes in the monolayer morphology, causes a drop in the impedance signal.
The potential presence of various arrhythmic events was evaluated and noted during the data analysis.
(§4) After the acquisition of all timepoint measurements, raw data were loaded into the data analysis software Axion Cardiac Analysis Tool (V.3.2.3). […] A.csv file containing information on the FP parameters per well, per time point, was then generated and used as input to the in-house data management system (SPEcII v.3.4, Unlimit-IT, Geel, Belgium), where descriptive statistics were calculated. Summary values at different time points after compound addition are expressed as percent change from baseline and shown as mean ± standard deviation (SD).
(§5) The nonparametric Wilcoxon-Mann Whitney Test was used to compare the percent change from the baseline (Δ%) value between the group treated with the compound at a given concentration and the group treated with the DMSO at each matching time points. A two-sided test at 5% significance level was considered. […] To assess the physiological relevance of changes, a tolerance interval of DMSO experiments was calculated at each time point, for each parameter. […] TIs indicate an interval where, with a certain confidence level (1- α = 0.95), a specified proportion (p = 0.80) of percent change for DMSO data falls. The lower and upper limits based on the TI values were used as cut-offs for the interpretation of the changes. For the cytotoxicity assays, measurements of fluorescence (after background fluorescence subtraction) from wells treated with the compounds were normalized by the average value of vehicle experiments (DMSO 0.1%) to obtain a DMSO-corrected, delta/delta percent change. Experiments from each condition, as delta/delta percent, were averaged and expressed as mean ± SD. Statistical analysis was performed using a non-parametric test (Kruskal-Wallis) and each treatment condition was compared to the relative DMSO 0.1%. Differences were considered statistically significant when the p-value was smaller than 0.05.

[2] = system: hiPSC-CMs (iCell-Cardiomyocytes^2); assay: MEA impedance (cytotoxicity readout) in hiPSC-CMs
Method: as §1, §2, §3, §4, §5

O=C(O)COCCN1CCN(C(c2ccccc2)c2ccc(Cl)cc2)CC1 (centres unmarked) [Cetirizine]
BR (beating rate), % change from baseline ([1]; 0.1 µM, 2h): 2±1%
FPD (field-potential duration), % change from baseline ([1]; 0.1 µM, 2h): 3.2±0.7%
FPDc (field-potential duration corrected by beat-rate), % change from baseline ([1]; 0.1 µM, 2h): 4.1±0.9%
BR (beating rate), % change from baseline ([1]; 0.1 µM, 24h): 2±2%
FPD (field-potential duration), % change from baseline ([1]; 0.1 µM, 24h): 8.9±2.4%
FPDc (field-potential duration corrected by beat-rate), % change from baseline ([1]; 0.1 µM, 24h): 9.7±1.6%
BR (beating rate), % change from baseline ([1]; 0.1 µM, 48h): -1±3%
FPD (field-potential duration), % change from baseline ([1]; 0.1 µM, 48h): 8.3±2.5%
FPDc (field-potential duration corrected by beat-rate), % change from baseline ([1]; 0.1 µM, 48h): 8±2.9%
BR (beating rate), % change from baseline ([1]; 0.1 µM, 72h): 0±2%
FPD (field-potential duration), % change from baseline ([1]; 0.1 µM, 72h): 7.8±1.4%
FPDc (field-potential duration corrected by beat-rate), % change from baseline ([1]; 0.1 µM, 72h): 7.6±1.5%
BR (beating rate), % change from baseline ([1]; 0.1 µM, 96h): -5±2%
FPD (field-potential duration), % change from baseline ([1]; 0.1 µM, 96h): 8.9±2.9%
FPDc (field-potential duration corrected by beat-rate), % change from baseline ([1]; 0.1 µM, 96h): 7.1±3.5%
BR (beating rate), % change from baseline ([1]; 0.3 µM, 2h): 2±3%
FPD (field-potential duration), % change from baseline ([1]; 0.3 µM, 2h): 2.9±2.5%
FPDc (field-potential duration corrected by beat-rate), % change from baseline ([1]; 0.3 µM, 2h): 3.8±2.3%
BR (beating rate), % change from baseline ([1]; 0.3 µM, 24h): 2±2%
FPD (field-potential duration), % change from baseline ([1]; 0.3 µM, 24h): 12.5±1.8%
FPDc (field-potential duration corrected by beat-rate), % change from baseline ([1]; 0.3 µM, 24h): 13±1.9%
BR (beating rate), % change from baseline ([1]; 0.3 µM, 48h): -4±3%
FPD (field-potential duration), % change from baseline ([1]; 0.3 µM, 48h): 12.1±2.3%
FPDc (field-potential duration corrected by beat-rate), % change from baseline ([1]; 0.3 µM, 48h): 10.4±2.2%
BR (beating rate), % change from baseline ([1]; 0.3 µM, 72h): -4±1%
FPD (field-potential duration), % change from baseline ([1]; 0.3 µM, 72h): 9.2±4.1%
FPDc (field-potential duration corrected by beat-rate), % change from baseline ([1]; 0.3 µM, 72h): 7.7±3.7%
BR (beating rate), % change from baseline ([1]; 0.3 µM, 96h): -6±2%
FPD (field-potential duration), % change from baseline ([1]; 0.3 µM, 96h): 10.3±1.1%
FPDc (field-potential duration corrected by beat-rate), % change from baseline ([1]; 0.3 µM, 96h): 8.2±1.1%
BR (beating rate), % change from baseline ([1]; 1 µM, 2h): 3±2%
FPD (field-potential duration), % change from baseline ([1]; 1 µM, 2h): 3.3±5.6%
FPDc (field-potential duration corrected by beat-rate), % change from baseline ([1]; 1 µM, 2h): 4.5±5%
BR (beating rate), % change from baseline ([1]; 1 µM, 24h): 1±4%
FPD (field-potential duration), % change from baseline ([1]; 1 µM, 24h): 19.3±18.2%
FPDc (field-potential duration corrected by beat-rate), % change from baseline ([1]; 1 µM, 24h): 19.6±16.4%
BR (beating rate), % change from baseline ([1]; 1 µM, 48h): -4±4%
FPD (field-potential duration), % change from baseline ([1]; 1 µM, 48h): 20.8±13.7%
FPDc (field-potential duration corrected by beat-rate), % change from baseline ([1]; 1 µM, 48h): 19±15%
BR (beating rate), % change from baseline ([1]; 1 µM, 72h): -6±2%
FPD (field-potential duration), % change from baseline ([1]; 1 µM, 72h): 17.3±16.7%
FPDc (field-potential duration corrected by beat-rate), % change from baseline ([1]; 1 µM, 72h): 15.4±17.1%
BR (beating rate), % change from baseline ([1]; 1 µM, 96h): -6±5%
FPD (field-potential duration), % change from baseline ([1]; 1 µM, 96h): 19±15.6%
FPDc (field-potential duration corrected by beat-rate), % change from baseline ([1]; 1 µM, 96h): 16.5±16.6%
BR (beating rate), % change from baseline ([1]; 3 µM, 72h): -5±2%
FPD (field-potential duration), % change from baseline ([1]; 3 µM, 72h): 12.9±3.8%
FPDc (field-potential duration corrected by beat-rate), % change from baseline ([1]; 3 µM, 72h): 11.2±3%
BR (beating rate), % change from baseline ([1]; 3 µM, 96h): -5±5%
FPD (field-potential duration), % change from baseline ([1]; 3 µM, 96h): 14.4±6.3%
FPDc (field-potential duration corrected by beat-rate), % change from baseline ([1]; 3 µM, 96h): 12.1±5%
BR (beating rate), % change from baseline ([1]; 3 µM, 2h): 3±2%
FPD (field-potential duration), % change from baseline ([1]; 3 µM, 2h): 4.9±3.1%
FPDc (field-potential duration corrected by beat-rate), % change from baseline ([1]; 3 µM, 2h): 6.1±3.3%
BR (beating rate), % change from baseline ([1]; 3 µM, 24h): 1±4%
FPD (field-potential duration), % change from baseline ([1]; 3 µM, 24h): 14.6±2.3%
FPDc (field-potential duration corrected by beat-rate), % change from baseline ([1]; 3 µM, 24h): 15.2±2.8 %
BR (beating rate), % change from baseline ([1]; 3 µM, 48h): -5±2%
FPD (field-potential duration), % change from baseline ([1]; 3 µM, 48h): 14.5±3.8%
FPDc (field-potential duration corrected by beat-rate), % change from baseline ([1]; 3 µM, 48h): 12.5±3%
Imp (impedance), % change from baseline ([2]; 0.1 µM, 2h): -4±4%
Imp (impedance), % change from baseline ([2]; 0.1 µM, 24h): -8±1%
Imp (impedance), % change from baseline ([2]; 0.1 µM, 48h): -7±2%
Imp (impedance), % change from baseline ([2]; 0.1 µM, 72h): -7±3%
Imp (impedance), % change from baseline ([2]; 0.1 µM, 96h): -7±4%
Imp (impedance), % change from baseline ([2]; 0.3 µM, 2h): -3±3%
Imp (impedance), % change from baseline ([2]; 0.3 µM, 24h): -8±2%
Imp (impedance), % change from baseline ([2]; 0.3 µM, 48h): -5±4%
Imp (impedance), % change from baseline ([2]; 0.3 µM, 72h): -5±6%
Imp (impedance), % change from baseline ([2]; 0.3 µM, 96h): -5±6%
Imp (impedance), % change from baseline ([2]; 1 µM, 2h): -4±2%
Imp (impedance), % change from baseline ([2]; 1 µM, 24h): -7±5%
Imp (impedance), % change from baseline ([2]; 1 µM, 48h): -4±7%
Imp (impedance), % change from baseline ([2]; 1 µM, 72h): -5±6%
Imp (impedance), % change from baseline ([2]; 1 µM, 96h): -4±9%
Imp (impedance), % change from baseline ([2]; 3 µM, 72h): -8±7%
Imp (impedance), % change from baseline ([2]; 3 µM, 96h): -6±7%
Imp (impedance), % change from baseline ([2]; 3 µM, 2h): -3±2%
Imp (impedance), % change from baseline ([2]; 3 µM, 24h): -7±4%
Imp (impedance), % change from baseline ([2]; 3 µM, 48h): -3±6%
